Measured values: US10231939B2, “Hydroxytyrosol and oleuropein compositions for induction of DNA damage, cell death and LSD1 inhibition” (priority 2012, dated 2019)

Experiments:
U937 cells = assay: Cell proliferation (Cell Titer-Blue Assay); format: cell-based, human; conditions: for EC50: Homo sapiens, U-937
Source text: (§1) Human chronic myelogenous leukemia K562 cells (ATCC No. CCL-243), human large B-lymphocyte non-Hodgkin's lymphoma LCL cells, human leukemic monocyte lymphoma U937 cells (ATCC No. CRL-1593.2), human prostate adenocarcinoma PC3 (ATCC No. CRL-1435) and human gastric carcinoma SNU-16 cells (ATCC No. CRL-5974) were maintained in complete-[…] Park Memorial Institute (RPMI) 1640 medium supplemented with 20 mmol/L HEPES (pH 7.4; GIBCO-Invitrogen, Carlsbad, Calif., USA), 10% (v/v) fetal bovine serum (FBS), 2 mmol/L L-glutamine (GIBCO-Invitrogen), and 80 units gentamicin (GIBCO-Invitrogen). Cells were cultured in suspension in a humidified atmosphere of 5% (v/v) CO2 at 37° C. and were maintained in exponential growth phase. For maintenance, cells were passaged twice per week and seeded at ratios 1:10. Cell proliferation was determined using the Cell Titer-Blue Assay kit (Promega, Madison, Wis., USA). Cells were seeded at 10,000 cells per well in black flat bottom 96-well plates (Nalge Nunc, Penfield, N.Y., USA) and treated with serial doses of hydroxytyrosol (0-3200 μM) and oleuropein (0-12800 μM) for 24, 48 and 120 hours at 37° C., 5% (v/v) CO2. Following incubation with the test samples, Cell-Titer Blue reagent (20 μl per 100 μL) was added to each well and mixed gently for 5 sec prior to 4 hr incubation at 37° C. in a humidified atmosphere of 5% CO2. Fluorescence intensity (λex=550 nm and λem=615 nm) was determined using a Perkin Elmer Victor3 multilabel microplate counter (PerkinElmer, Waltham, Mass., USA). Data were expressed as % relative cell viability compared to untreated cells after correction of subtracting the media control fluorescence reading.

K562 cells [1] = assay: Cell proliferation (Cell Titer-Blue Assay); format: cell-based, human; conditions: for EC50: Homo sapiens
Source text: as §1

LCL cells = assay: Cell proliferation (Cell Titer-Blue Assay); format: cell-based, human; conditions: for EC50: Homo sapiens
Source text: as §1

PC3 cells = assay: Cell proliferation (Cell Titer-Blue Assay); format: cell-based, human; conditions: for EC50: Homo sapiens, PC-3
Source text: as §1

[2] = Cell viability (Cell-Titer Blue), PBMC; format: cell-based; conditions: human, PBMC (peripheral blood mononuclear cells), hydroxytyrosol 20 or 100 μM
Experimental: Cells were seeded at densities of 7,500 cells/in black flat bottom 96-well plates (Nalge Nunc, Penfield, N.Y., USA) and treated with a dose response of hydroxytyrosol (0-200 μM), oleuropein (0-800 μM), tyrosol (0-1000 μM) and homovanilic acid (0-1000 μM) for 24 hours at 37° C., 5% (v/v) CO2. Cell viability was determined after 24 hour exposure to hydroxytyrosol and measured using the Cell-Titer Blue® Assay kit (Promega, Madison, Wis., USA) according to the manufacturer's instructions. Cell-Titer Blue reagent was added to each well and incubated for 4 hours at 37° C., 5% CO2, before reading fluorescence intensity (550 nm excitation; 615 nm emission) using the Perkin Elmer Victor3 (Perkin Elmer, MA, USA) multi-label plate reader.

K562 cells [3] = assay: Western blotting of histone methylation, K562; format: cell-based, human; conditions: K562, 100 μM, 24 hours
human keratinocytes = assay: γH2AX immunofluorescence, keratinocytes after γ-radiation; format: cell-based; conditions: pre-treatment 24 hours
Experimental: Keratinocytes pre-treated with Formulations 1, 2 and 3 (Table 9) for 24 hours prior to exposure to 0, 2 and 12 Gy (137Cs) and incubated for a further hour; 37° C., 5% (v/v) CO2, before staining for γH2AX as previously described.

Row | SMILES | EC50 (U937 cells; U937, 24 hr) | EC50 (U937 cells; U937, 48 hr) | EC50 (U937 cells; U937, 120 hr) | EC10 (concentration required to reduce the cell viability of the population to 10%) (U937 cells; U937, 120 hr) | EC50 (K562 cells [1]; K562, 24 hr) | EC50 (K562 cells [1]; K562, 48 hr) | EC50 (K562 cells [1]; K562, 120 hr) | EC10 (concentration required to reduce the cell viability of the population to 10%) (K562 cells [1]; K562, 120 hr) | EC10 (concentration required to reduce the cell viability of the population to 10%) (LCL cells; 120 hr) | EC50 (LCL cells; 24 hr) | EC50 (LCL cells; 48 hr) | EC50 (LCL cells; 120 hr) | EC50 (PC3 cells; PC3, 24 hr) | EC50 (PC3 cells; PC3, 48 hr) | EC50 (PC3 cells; PC3, 120 hr) | EC10 (concentration required to reduce the cell viability of the population to 10%) (PC3 cells; PC3, 120 hr) | viability at 24 h [2] | histone H3 lysine 9 (H3K9) di-methylation (K562 cells [3]) | radiation-induced DNA damage (human keratinocytes)
1 | C/C=C1/[C@H](O[C@@H]2O[C@H](CO)[C@@H](O)[C@H](O)[C@H]2O)OC=C(C(=O)OC)[C@H]1CC(=O)OCCc1ccc(O)c(O)c1 [OL, oleuropein] | 730 µM | 2800 µM | 1250 µM | 2600 µM | 337 µM | 950 µM | 585 µM | 756 µM | 1240 µM | 403 µM | 1100 µM | 640 µM | 2290 µM | 3800 µM | 2500 µM | 4600 µM | – | – | –
2 | OCCc1ccc(O)c(O)c1 [HT, 4-(2-hydroxyethyl)-1,2-benzenediol] | 563 µM | 500 µM | 250 µM | 370 µM | 150 µM | 150 µM | 91 µM | 176 µM | 177 µM | 370 µM | 200 µM | 94 µM | 2120 µM | 320 µM | 215 µM | 630 µM | 100% | increased | protects
